# Results: PMC10816221, “A Versatile Aldehyde: Ferredoxin Oxidoreductase from the Organic Acid Reducing Thermoanaerobacter sp. Strain X514” (International Journal of Molecular Sciences, 2024)
# Biological target: T1, AORX514 (AOR-His) (Thermoanaerobacter pseudethanolicus, UniProt B0K8P3)
# T1 construct: gene Teth39_0850; full length, C-terminal 6xHis (plasmid pJM009), made in Thermoanaerobacter kivui MB014; W-containing, FeS cluster
# Test: acetaldehyde-dependent viologen reduction at […] nm; substrate inhibition kinetics
# Assay type: biochemical
# Conditions: benzyl viologen as electron acceptor, routine assay 50 mM TRIS pH 7.5, 65 °C, anoxic
# T1 sequence (B0K8P3 1-599): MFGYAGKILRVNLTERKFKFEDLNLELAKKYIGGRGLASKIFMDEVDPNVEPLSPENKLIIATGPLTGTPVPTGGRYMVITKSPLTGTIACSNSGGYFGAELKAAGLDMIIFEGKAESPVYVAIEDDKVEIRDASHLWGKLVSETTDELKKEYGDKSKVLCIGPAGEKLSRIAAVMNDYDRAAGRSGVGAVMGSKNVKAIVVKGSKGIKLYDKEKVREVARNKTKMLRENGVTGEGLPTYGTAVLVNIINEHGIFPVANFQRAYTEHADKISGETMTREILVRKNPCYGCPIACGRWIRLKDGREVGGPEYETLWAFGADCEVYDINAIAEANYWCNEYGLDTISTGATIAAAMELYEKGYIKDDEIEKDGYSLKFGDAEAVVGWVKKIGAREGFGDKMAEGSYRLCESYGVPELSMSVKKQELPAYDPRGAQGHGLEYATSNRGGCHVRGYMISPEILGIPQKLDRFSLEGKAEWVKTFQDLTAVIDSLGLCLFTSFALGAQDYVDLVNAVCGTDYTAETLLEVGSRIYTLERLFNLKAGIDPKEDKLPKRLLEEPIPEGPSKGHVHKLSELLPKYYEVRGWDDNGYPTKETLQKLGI
compound,measurement,value
CC=O [Acetaldehyde],ki,8.7 ± 1.3 mM
